Data taken from patent US12351559B2 (Biohaven Therapeutics Ltd., priority 2014, dated 2025).

molecular target: T1, Kv7.2/7.3 (Homo sapiens, UniProt O43525+O43526); experiment: Kv7.2/7.3 activation assay, QPatch planar patch-clamp, single concentration screen; assay type: cell-based; set-up: key: <1.2-fold increase over baseline (−); +/−: as a range from <1.2-fold increase over baseline (−) up to >6-fold increase over baseline (+++); as a range from <1.2-fold increase over baseline (−) up to >6-fold increase over baseline (+++); as a range from <1.2-fold increase over baseline (−) up to >6-fold increase over baseline (+++); >6-fold increase over baseline (+++); details: Kv7.2/Kv7.3 co-expressing HEK cells, compound 3 μM, steady-state current at end of 2 s pulse to −30 mV
T1 construct: host or cells: HEK cells, tetracycline-inducible expression

SMILES	Kv7.2/7.3 Activity: increase in current over baseline
CC(O)(CC(=O)Nc1nc2ccc(C#N)cc2n1C1CCC1)C1CC1 (stereo not drawn) [Example 28, N-(6-cyano-1-cyclobutyl-1H-benzo[d]imidazol-2-yl)-3-cyclopropyl-3-hydroxybutanamide]	+/−
CC(C)[C@@H](C)C(=O)Nc1nc2ccc(C#N)cc2n1C1CCC1 [Example 14, (R)-N-(6-cyano-1-cyclobutyl-1H-benzo[d]imidazol-2-yl)-2,3-dimethylbutanamide]	+/−
Cc1cc(-n2c(NC(=O)[C@@H](C)C(C)(C)C)nc3ccc(C#N)cc32)on1 [Example 49, (S)-N-(6-cyano-1-(3-methylisoxazol-5-yl)-1H-benzo[d]imidazol-2-yl)-2,3,3-trimethylbutanamide]	+
CC(C)(C)CC(=O)Nc1nc2ccc(C(F)(F)F)cc2n1C1CCC1 [Example 34, N-(1-cyclobutyl-6-(trifluoromethyl)-1H-benzo[d]imidazol-2-yl)-3,3-dimethylbutanamide]	++
O=C(Nc1nc2ccc(C(F)(F)F)cc2n1C1CCC1)C1CC(F)(F)C1 [Example 38, N-(1-cyclobutyl-6-(trifluoromethyl)-1H-benzo[d]imidazol-2-yl)-3,3-difluorocyclobutane-1-carboxamide]	+/−
COc1ccc2nc(NC(=O)[C@@H](C)C(C)C)n(C(C)C)c2c1 [Example 4, (S)-N-(1-isopropyl-6-methoxy-1H-benzo[d]imidazol-2-yl)-2,3-dimethylbutanamide]	+/−
C[C@H](C(=O)Nc1nc2ccc(C(C)(C)O)cc2n1C1CCC1)C(C)(C)C [Example 86, (S)-N-(1-cyclobutyl-6-(2-hydroxypropan-2-yl)-1H-benzo[d]imidazol-2-yl)-2,3,3-trimethylbutanamide]	+++ (>6-fold increase over baseline (+++))
O=C(CC1(O)CCC1)Nc1nc2ccc(C(F)(F)F)cc2n1C1CCC1 [Example 44, N-(1-cyclobutyl-6-(trifluoromethyl)-1H-benzo[d]imidazol-2-yl)-2-(1-hydroxycyclobutyl)acetamide]	+
CC1(C)C[C@@H]1C(=O)Nc1nc2ccc(Cl)cc2n1C1CCC1 [Example 58, (S)-N-(6-chloro-1-cyclobutyl-1H-benzo[d]imidazol-2-yl)-2,2-dimethylcyclopropane-1-carboxamide]	+
N#Cc1ccc2nc(NC(=O)[C@@H]3C[C@@H]4CC[C@H]3C4)n(C3CCC3)c2c1 [Example 10, (1S,2R,4R)-N-(6-cyano-1-cyclobutyl-1H-benzo[d]imidazol-2-yl)bicyclo[2.2.1]heptane-2-carboxamide]	+
CC(C)(O)CC(=O)Nc1nc2ccc(C(F)(F)F)cc2n1C1CCC1 [Example 35, N-(1-cyclobutyl-6-(trifluoromethyl)-1H-benzo[d]imidazol-2-yl)-3-hydroxy-3-methylbutanamide]	+
CC(C)(C)CC(=O)Nc1nc2ccc(CO)cc2n1C1CCC1 [Example 51, N-(1-cyclobutyl-6-(hydroxymethyl)-1H-benzo[d]imidazol-2-yl)-3,3-dimethylbutanamide]	+

Further lines, results first:

Kv7.2/7.3 Activity: increase in current over baseline	SMILES
+	CC(C)[C@H](C)C(=O)Nc1nc2ccc(Cl)cc2n1C1CCC1 [Example 59, (S)-N-(6-chloro-1-cyclobutyl-1H-benzo[d]imidazol-2-yl)-2,3-dimethylbutanamide]
+	CC(C)(C)CC(=O)Nc1nc2ccc(Cl)cc2n1C1CCC1 [Example 60, N-(6-chloro-1-cyclobutyl-1H-benzo[d]imidazol-2-yl)-3,3-dimethylbutanamide]
++	CC1(n2c(NC(=O)C[C@@](C)(O)c3ccccc3)nc3ccc(C#N)cc32)CCC1 [Example 96, (R)-N-(6-cyano-1-(1-methylcyclobutyl)-1H-benzo[d]imidazol-2-yl)-3-hydroxy-3-phenylbutanamide]
+	CC1(n2c(NC(=O)C[C@](C)(O)c3ccccc3Cl)nc3ccc(C#N)cc32)CCC1 [Example 139, (S)-3-(2-chlorophenyl)-N-(6-cyano-1-(1-methylcyclobutyl)-1H-benzo[d]imidazol-2-yl)-3-hydroxybutanamide]
+	CC1(n2c(NC(=O)C[C@](C)(O)c3ccc(F)cc3)nc3ccc(C#N)cc32)CCC1 [Example 138, (S)-N-(6-cyano-1-(1-methylcyclobutyl)-1H-benzo[d]imidazol-2-yl)-3-(4-fluorophenyl)-3-hydroxybutanamide]
+	C[C@](O)(CC(=O)Nc1nc2ccc(C#N)cc2n1-c1ccc(F)cn1)c1ccccc1 [Example 79, (S)-N-(6-cyano-1-(5-fluoropyridin-2-yl)-1H-benzo[d]imidazol-2-yl)-3-hydroxy-3-phenylbutanamide]
